# Read-outs that look alike come from different tables or passages of the source.
# Experiments:
# [1] = target: T1, human glucocorticoid receptor (Homo sapiens, UniProt P04150); assay: Glucocorticoid Receptor Binding Assay (I), fluorescence polarization competitor kit (Fluormone GS Red); settings: purified human recombinant full-length GR
# T1 construct: purified human recombinant full-length glucocorticoid receptor (2 nM); purchased Invitrogen Part # 2893
# T1 sequence (P04150 1-777): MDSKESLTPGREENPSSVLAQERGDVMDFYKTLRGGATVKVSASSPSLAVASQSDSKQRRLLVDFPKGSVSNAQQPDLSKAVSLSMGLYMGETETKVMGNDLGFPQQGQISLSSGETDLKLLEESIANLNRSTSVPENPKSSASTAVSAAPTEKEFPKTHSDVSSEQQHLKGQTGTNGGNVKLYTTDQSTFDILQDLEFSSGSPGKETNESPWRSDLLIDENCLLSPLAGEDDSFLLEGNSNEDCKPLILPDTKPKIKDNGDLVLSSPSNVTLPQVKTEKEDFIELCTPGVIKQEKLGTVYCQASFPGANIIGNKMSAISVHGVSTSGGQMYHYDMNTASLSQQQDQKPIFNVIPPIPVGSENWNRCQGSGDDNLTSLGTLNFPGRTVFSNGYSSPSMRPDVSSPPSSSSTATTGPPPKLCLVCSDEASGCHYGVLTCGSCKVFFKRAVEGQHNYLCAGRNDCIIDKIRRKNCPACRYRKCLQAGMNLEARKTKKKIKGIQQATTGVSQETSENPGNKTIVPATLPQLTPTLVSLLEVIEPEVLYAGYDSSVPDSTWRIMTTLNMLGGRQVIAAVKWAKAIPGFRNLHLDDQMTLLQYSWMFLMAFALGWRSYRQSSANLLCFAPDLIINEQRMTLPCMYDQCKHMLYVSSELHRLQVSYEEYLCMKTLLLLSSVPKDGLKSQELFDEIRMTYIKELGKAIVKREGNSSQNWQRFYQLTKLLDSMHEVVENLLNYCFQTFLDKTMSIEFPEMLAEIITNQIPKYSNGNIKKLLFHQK
# Description: In order to assess the affinity of test compounds for the human glucocorticoid receptor, a commercially available kit was used (Glucocorticoid Receptor Competitor Assay Kit, Invitrogen Part # 2893). Briefly, purified human recombinant full-length glucocorticoid receptor (2 nM) was mixed with fluorescently labeled glucocorticoid (1 nM Fluormone GS Red) in the presence or absence of test compound. After two hour incubation at room temperature in the dark, the fluorescence polarization (FP) of the samples was measured. […] Test compounds were analyzed in the concentration range from 8.5E-05 μM to 5 μM.
# [2] = system: AP-1 induced transcriptional activity; assay: Cellular Transrepressional Assay (AP-1 luciferase reporter in A549 cells, PMA-activated); type: cell-based; settings: pAP-1-Luc, 10 ng/ml PMA, read-out: AP-1 (EC50, nM) (Cellular Transrepression Assay)
# Description: To measure the ability of test molecules to inhibit AP-1 induced transcriptional activity an A549 cell was utilized which was stably transfected with a plasmid containing 7×AP-1 DNA binding sites (pAP-1-Luc plasmid, Stratagene Co. La Jolla, Calif.) followed by the gene for luciferase. Cells were activated with 10 ng/ml of phorbol myristic acid (PMA) plus or minus test molecules for 7 hours. After 7 hours a luciferase reagent was added to measure luciferase enzymatic activity in the cell. After a 10 minute incubation of luciferase reagent with cells, luminescence was measured in a TopCount luminescence counter. Repression of AP-1 activity was calculated as the percentage decrease in the signal induced by PMA alone. Test molecules were analyzed in the concentration range from 0.1 nM to 40 μM. EC50s were determined by using standard curve fitting methods such as Excel fit (Microsoft Co.).
Compound,Ki [1],EC50 ([2]; 7 hours),"EC50 ([2]; Homo sapiens, A549, 7 h)"
"CC(CNC(=O)CC(F)(F)F)C(c1ccccc1)c1ccc2c(cnn2-c2ccc(F)cc2)c1 (single isomer, unassigned) [Example 90B, 3,3,3-trifluoro-N-(3-(1-(4-fluorophenyl)-1H-indazol-5-yl)-2-methyl-3-phenylpropyl)propanamide]",21 nM,176 nM,–
"CC(C)CC(c1ccc2c(cnn2-c2ccc(F)cc2)c1)C(C)(C)CNC(=O)CC(C)(C)c1ccc(Cl)cc1 (centres unmarked) [Example 68, 3-(4-chlorophenyl)-N-(3-(1-(4-fluorophenyl)-1H-indazol-5-yl)-2,2,5-trimethylhexyl)-3-methylbutanamide]",8.1 nM,–,271 nM
"CC(C)CC(c1ccc2c(cnn2-c2ccc(F)cc2)c1)C(C)(C)CNC(=O)NC(C)(C)c1ccnc(C(C)(C)C)c1 (centres unmarked) [Example 64, 1-(2-(2-tert-butylpyridin-4-yl)propan-2-yl)-3-(3-(1-(4-fluorophenyl)-1H-indazol-5-yl)-2,2,5-trimethylhexyl)urea]",17 nM,–,> 10000 nM
"CCC(c1ccc2c(cnn2-c2ccc(F)cc2)c1)C(C)(C)CNC(=O)NC(C)(C)C (centres unmarked) [Example 101, 1-tert-butyl-3-(3-(1-(4-fluorophenyl)-1H-indazol-5-yl)-2,2-dimethylpentyl)urea]",2.1 nM,–,132 nM
CC(C)CC(c1ccc2c(cnn2-c2ccc(F)cc2)c1)C(C)(C)CNC(=O)NC1(C)CCS(=O)(=O)C1 (centres unmarked) [Example 38],6.3 nM,–,> 10000 nM
"CC(C)CC(c1ccc2c(cnn2-c2ccc(F)cc2)c1)C(C)(C)CNC(=O)NC1CCOCC1 (centres unmarked) [Example 37, 1-(3-(1-(4-fluorophenyl)-1H-indazol-5-yl)-2,2,5-trimethylhexyl)-3-(tetrahydro-2H-pyran-4-yl)urea]",5.8 nM,–,> 10000 nM
"CC(C)CC(c1ccc2c(cnn2-c2ccc(F)cc2)c1)C(C)(C)CNC(=O)N[C@H](C)C(C)(C)C (stereo partly drawn) [Example 44, 1-((R)-3,3-dimethylbutan-2-yl)-3-(3-(1-(4-fluorophenyl)-1H-indazol-5-yl)-2,2,5-trimethylhexyl)urea]",2.7 nM,–,54 nM
"CC(C)CC(c1ccc2c(cnn2-c2ccc(F)cc2)c1)C(C)(C)CNC(=O)N[C@H](C)CO (stereo partly drawn) [Example 45, 1-(3-(1-(4-fluorophenyl)-1H-indazol-5-yl)-2,2,5-trimethylhexyl)-3-((R)-1-hydroxypropan-2-yl)urea]",2.1 nM,–,1540 nM
"CCCS(=O)(=O)NCC(C)C(c1ccccc1)c1ccc2c(cnn2-c2ccc(F)cc2)c1 (centres unmarked) [Example 95, N-(3-(1-(4-fluorophenyl)-1H-indazol-5-yl)-2-methyl-3-phenylpropyl)propane-1-sulfonamide]",1.2 nM,–,27 nM
"CC(C)(CNS(=O)(=O)CC(F)(F)F)[C@@H](c1ccccc1)c1ccc2c(cnn2-c2ccc(F)cc2)c1 [Example 18, (S)-2,2,2-trifluoro-N-(3-(1-(4-fluorophenyl)-1H-indazol-5-yl)-2,2-dimethyl-3-phenylpropyl)ethanesulfonamide]",1.1 nM,–,25 nM
"CC(C)(CNC(=O)Nc1nccs1)C(C)(C)c1ccc2c(cnn2-c2ccc(F)cc2)c1 [Example 115, 1-(3-(1-(4-Fluorophenyl)-1H-indazol-5-yl)-2,2,3-trimethylbutyl)-3-(thiazol-2-yl)urea]",16 nM,–,> 10000 nM
"CC(C)CC(c1ccc2c(cnn2-c2ccc(F)cc2)c1)C(C)(C)CNC(=O)NC(C)(C)c1ccccc1 (centres unmarked) [Example 48, 1-(3-(1-(4-fluorophenyl)-1H-indazol-5-yl)-2,2,5-trimethylhexyl)-3-(2-phenylpropan-2-yl)urea]",3.1 nM,–,42 nM
"CCS(=O)(=O)NCC(C)C(c1ccccc1)c1ccc2c(cnn2-c2ccc(F)cc2)c1 (centres unmarked) [Example 93, N-(3-(1-(4-fluorophenyl)-1H-indazol-5-yl)-2-methyl-3-phenylpropyl)ethanesulfonamide]",0.92 nM,–,5.6 nM
"CC(C)NC(=O)NCC(C)(C)C(C)(C)c1ccc2c(cnn2-c2ccc(F)cc2)c1 [Example 118, 1-(3-(1-(4-fluorophenyl)-1H-indazol-5-yl)-2,2,3-trimethylbutyl)-3-isopropylurea]",29 nM,–,2800 nM
"Cc1ccc(C(C)(C)NC(=O)NCC(C)(C)C(CC(C)C)c2ccc3c(cnn3-c3ccc(F)cc3)c2)c(C)n1 (centres unmarked) [Example 52, 1-(2-(2,6-dimethylpyridin-3-yl)propan-2-yl)-3-(3-(1-(4-fluorophenyl)-1H-indazol-5-yl)-2,2,5-trimethylhexyl)urea]",2.3 nM,–,772 nM
"CC(CNS(=O)(=O)CC(F)(F)F)C(c1ccccc1)c1ccc2c(cnn2-c2ccc(F)cc2)c1 (single isomer, unassigned) [Example 91D, 2,2,2-trifluoro-N-(3-(1-(4-fluorophenyl)-1H-indazol-5-yl)-2-methyl-3-phenylpropyl)ethanesulfonamide]",74 nM,2500 nM,–
"CC(C)CC(c1ccc2c(cnn2-c2ccc(F)cc2)c1)C(C)(C)CNC(=O)N[C@H]1CCc2ccccc21 (stereo partly drawn) [Example 71A, 1-((S)-2,3-dihydro-1H-inden-1-yl)-3-(3-(1-(4-fluorophenyl)-1H-indazol-5-yl)-2,2,5-trimethylhexyl)urea]",5.8 nM,–,194 nM
"CC(C)C(c1ccc2c(cnn2-c2ccc(F)cc2)c1)C(C)(C)CNC(=O)NC(C)(C)C (centres unmarked) [Example 103, 1-tert-butyl-3-(3-(1-(4-fluorophenyl)-1H-indazol-5-yl)-2,2,4-trimethylpentyl)urea]",5.9 nM,–,349 nM
"CC(C)CC(c1ccc2c(cnn2-c2ccc(F)cc2)c1)C(C)(C)CNC(=O)N1CC(N)C1 (centres unmarked) [Example 40, 3-amino-N-(3-(1-(4-fluorophenyl)-1H-indazol-5-yl)-2,2,5-trimethylhexyl)azetidine-1-carboxamide]",11 nM,–,> 10000 nM
"CC(C)CC(c1ccc2c(cnn2-c2ccc(F)cc2)c1)C(C)(C)CNC(=O)NC(CO)CO (centres unmarked) [Example 46, 1-(1,3-dihydroxypropan-2-yl)-3-(3-(1-(4-fluorophenyl)-1H-indazol-5-yl)-2,2,5-trimethylhexyl)urea]",1.5 nM,–,6050 nM
"CC(C)CC(c1ccc2c(cnn2-c2ccc(F)cc2)c1)C(C)(C)CNC(=O)NC1CCN(Cc2ccccc2)CC1 (centres unmarked) [Example 79, 1-(1-benzylpiperidin-4-yl)-3-(3-(1-(4-fluorophenyl)-1H-indazol-5-yl)-2,2,5-trimethylhexyl)urea]",11 nM,–,5000 nM
"CC(C)CC(c1ccc2c(cnn2-c2ccc(F)cc2)c1)C(C)(C)CNC(=O)[C@H](O)C(C)(C)C (single isomer, unassigned) [Example 69 diastA, N-(3-(1-(4-fluorophenyl)-1H-indazol-5-yl)-2,2,5-trimethylhexyl)-2-hydroxy-3,3-dimethylbutanamide]",3.7 nM,–,> 10000 nM
"CC(CNS(=O)(=O)CC(F)(F)F)C(c1ccccc1)c1ccc2c(cnn2-c2ccc(F)cc2)c1 (single isomer, unassigned) [Example 91B, 2,2,2-trifluoro-N-(3-(1-(4-fluorophenyl)-1H-indazol-5-yl)-2-methyl-3-phenylpropyl)ethanesulfonamide]",15 nM,201 nM,–
"CC(CNC(=O)CC(F)(F)F)C(c1ccccc1)c1ccc2c(cnn2-c2ccc(F)cc2)c1 (single isomer, unassigned) [Example 90A, 3,3,3-trifluoro-N-(3-(1-(4-fluorophenyl)-1H-indazol-5-yl)-2-methyl-3-phenylpropyl)propanamide]",2.3 nM,52 nM,–
"CCNC(=O)NCC(C)(C)C(C)(C)c1ccc2c(cnn2-c2ccc(F)cc2)c1 [Example 117, 1-ethyl-3-(3-(1-(4-fluorophenyl)-1H-indazol-5-yl)-2,2,3-trimethylbutyl)urea]",20 nM,–,> 10000 nM

# Reference: patent US8198311B2, “Modulators of glucocorticoid receptor, AP-1, and/or NF-κB activity and use thereof” (Bristol-Myers Squibb Company, priority 2006, dated 2012)
